The results in this text go back to patent EP1142584A1, “COMPOSITIONS FOR TREATING FREQUENT URINATION AND URINARY INCONTINENCE” (Takeda Chemical Industries, Ltd., priority 1999, dated 2000).

Holding throughout (type): in vivo
Test [1] has as its system rhythmic bladder contractions in urethane-anesthetized rats. The experiment in a line: Rhythmic bladder contractions in urethane-anesthetized rats (Test Example 2). Particulars: mean ± standard error; for Reflex shutdown time: maximum observation period 30 minutes. As for the experimental part: The urinary frequency and urinary incontinence suppressing activity of a GABA uptake inhibitor was measured as the ability to abolish the rhythmic bladder contractions in urethane-anesthetized rats as an index. An urethra was ligated, a constant volume of physiological saline warmed at 39°C was injected into the bladder to distend the detrusor muscle, and the regular rhythmic bladder contractions at a constant interval were observed. After the stable bladder contractions were confirmed, a compound was administered intravenously to investigate the activities. A time for completely suppressing the rhythmic bladder contractions after the drug administration (reflex shutdown time, a maximum observation period was 30 minutes) and a maximum contractile intravesical pressure at which the bladder contraction appeared again after the administration was measured. […] Table 2 Tiagabin hydrochloride was dissolved in distilled water, other drugs were dissolved in physiological saline, and the drugs were administered intravenously, respectively. Data are shown as mean ± standard error. *P<0.05, **P<0.01 (significance relative to the vehicle-administered control group, nonparametric Dunnett multiple comparison test, two-tailed test) ^#P<0.05 (significance to the values obtained before drug administration, paired t test, two-tailed test). A maximum contractile pressure was calculated from animals from which the bladder constriction was obtained in an observation period.

Test [2] deals with bladder capacity in urethane-anesthetized rats. In words: Bladder capacity (cystometry) in urethane-anesthetized rats (Test Example 3). Particulars: mean ± standard error. As for the experimental part: The urinary frequency and urinary incontinence suppressing activity of a GABA uptake inhibitor was shown by the ability to increase bladder capacity in urethane-anesthetized rats. After a bladder was made empty by drawing out the urine, physiological saline warmed at 39°C was injected into the bladder at a constant rate (0.05 ml/min.) to induce micturition. These procedures were repeated to confirm stable bladder capacity (volume of physiological saline injected until start of micturition) and, thereafter, compounds were administered intravenously to investigate the activities. A change in bladder capacity and micturition pressure after the administration was measured. […] Table 3 Tiagabin hydrochloride was dissolved in distilled water, other drugs were dissolved in physiological saline and the drugs were administered intravenously, respectively. Data are shown as the mean ± standard error. After drug administration, animals showing an overflow urinary incontinence-like cystometrogram (urine leakage without the bladder constriction) were excluded from calculation of micturition pressure. *P<0.05, **P<0.01 (significance to the values obtained before drug administration, paired t test, two-tailed test)

In test [3] the test system is rhythmic bladder contractions in urethane-anesthetized guinea pig. The experiment in a line: Rhythmic bladder contractions in urethane-anesthetized guinea pig (Test Example 1). The following applies: mean ± standard error, maximum observation period 30 minutes. As for the experimental part:
The urinary frequency and urinary incontinence suppressing activity of NO-711 hydrochloride was evaluated by the ability to increase an interval between rhythmic bladder contractions in urethane-anesthetized guinea pig as an index. In this model, an urethra was ligated, a constant volume of a physiological saline (3 to 4.5 ml) warmed at 39°C was injected into the bladder to distend, and the regular rhythmic bladder contractions at a constant interval were observed. After the stable rhythmic bladder contractions were confirmed, a compound dissolved in physiological saline was administered intravenously to investigate the activity. Immediately after administration of a drug, the time of complete suppression of the rhythmic bladder contractions (rhythmic bladder contraction shutdown time, maximum observation period was 30 minutes) was measured. Table 1 A drug was administered intravenously. *P<0.05, **P<0.01 (significance to the physiological saline-administered control group, nonparametric Dunnett multiple comparison test, two-tailed test)

Counter-ions that a name gives are not always drawn. Marks after values point to notes of the source that are not given here.

Regarding `O=C(O)C1=CCCN(CCON=C(c2ccccc2)c2ccccc2)C1` [NO-711 hydrochloride], the “Change in maximum contractile intravesical pressure (Relative to before administration, %)” value in test [1] (0.3 mg/kg intravenously) is given as -3.3±3.2%; in test [1] (1 mg/kg intravenously), -19.7±5.6* %; in test [1] (3 mg/kg intravenously) it was -8.4±5.8%. Moreover, the Reflex shutdown time in test [1] (0.3 mg/kg intravenously) was 3.8 ± 1.1 min; in test [1] (1 mg/kg intravenously) it was 11.4±2.9** min; in test [1] (3 mg/kg intravenously), 12.1±2.5** min. Moreover, the entries for the “Change in bladder capacity (Relative to before administration, %)” value in test [2] (0.3 mg/kg intravenously), in test [2] (1 mg/kg intravenously) and in test [2] (3 mg/kg intravenously) were -8.4±11.3%, 180.9±76.8* % and 188.7±45.3** %, respectively. Besides, the “Change in micturition pressure (Relative to before administration, %)” value in test [2] (0.3 mg/kg intravenously) was -18.1±10.5%; in test [2] (1 mg/kg intravenously) it was 16.4±8.2%; in test [2] (3 mg/kg intravenously), 14.6±18.2%. In addition, the “Rhythmic bladder contraction shutdown time” value in test [3] (1 mg/kg intravenously) is 5.9 ± 1.3 min; in test [3] (3 mg/kg intravenously), 18.4±5.0* minutes; in test [3] (10 mg/kg intravenously), 16.9±3.6** minutes.
